Where a chain is given by its changes, count along the chain named. The source made the active and inactive calls. No cut-off for these calls is given here.
Key:
HeLa = experiment: Cytotoxicity against human HeLa cells assessed as reduction in cell viability up to 3 uM measured after 24 hrs by MTT assay; format: functional, cell-based
[1] = target: T1, Heat shock protein 75 kDa, mitochondrial (Homo sapiens) (UniProt Q12931); experiment: Binding affinity to recombinant wild-type human TRAP1 ATP site expressed in Escherichia coli BL21 (DE3) assessed as induction of conformational change by measuring closed state population of TRAP1 at 10 uM measured after 30 mins in absence of ATP by TEM analysis (reference value: 52.1 +/- 0.6 %)
T1 sequence (whole entry): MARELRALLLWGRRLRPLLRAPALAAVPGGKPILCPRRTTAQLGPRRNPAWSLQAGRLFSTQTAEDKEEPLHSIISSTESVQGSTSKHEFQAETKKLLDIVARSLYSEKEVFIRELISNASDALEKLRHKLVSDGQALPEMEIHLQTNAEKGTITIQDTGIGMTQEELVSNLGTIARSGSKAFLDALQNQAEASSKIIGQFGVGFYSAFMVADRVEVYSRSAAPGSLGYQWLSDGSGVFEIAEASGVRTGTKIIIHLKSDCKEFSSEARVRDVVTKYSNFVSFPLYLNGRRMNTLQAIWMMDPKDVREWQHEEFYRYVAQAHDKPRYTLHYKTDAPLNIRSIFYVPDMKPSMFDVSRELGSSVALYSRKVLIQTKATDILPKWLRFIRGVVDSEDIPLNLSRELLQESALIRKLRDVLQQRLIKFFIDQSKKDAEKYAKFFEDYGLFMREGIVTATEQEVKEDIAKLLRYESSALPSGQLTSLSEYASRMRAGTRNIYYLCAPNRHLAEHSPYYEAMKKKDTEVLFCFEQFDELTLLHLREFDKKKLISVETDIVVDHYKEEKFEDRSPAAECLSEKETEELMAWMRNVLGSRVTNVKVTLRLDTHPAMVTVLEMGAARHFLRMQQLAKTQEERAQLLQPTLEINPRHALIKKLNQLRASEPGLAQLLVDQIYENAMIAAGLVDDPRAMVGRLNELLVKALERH

[2] = target: T1, Heat shock protein 75 kDa, mitochondrial (Homo sapiens); experiment: Inhibition of TRAP1 in human PC3 cells assessed as increase in AMPK phosphorylation at 5 uM measured after 2 to 12 hrs by Western blot analysis; format: cell-based; conditions: PC-3
[3] = system: T2, Heat shock protein 75 kDa, mitochondrial (Homo sapiens), Q12931 [R402Q]; experiment: Stimulation of recombinant […] human TRAP1 R402Q mutant ATPase activity expressed in Escherichia coli BL21 (DE3) up to 20 uM preincubated for 0.5 hrs followed by ATP addition and measured after 3 hrs by PiColorLock Gold reagent based colorimetric assay
T2 sequence (whole entry): T1 sequence (whole entry) with R402Q

[4] = target: T1, Heat shock protein 75 kDa, mitochondrial (Homo sapiens); experiment: Stimulation of recombinant wild-type human TRAP1 ATPase activity expressed in Escherichia coli BL21 (DE3) at 2 to 5 uM preincubated for 0.5 hrs followed by 0.2 mM ATP addition and measured after 3 hrs by PiColorLock Gold reagent based colorimetric assay relative to control
Mus musculus = experiment: In vivo inhibition of TRAP1 in nude mouse xenografted with human NCI-H460 cells assessed as increase in SIRT3 degradation at 5 mg/kg, ip administered daily by Western blot analysis; format: functional, organism-based
[5] = target: T1, Heat shock protein 75 kDa, mitochondrial (Homo sapiens); experiment: Inhibition of TRAP1 in human PC3 cells assessed as loss of mitochondrial membrane potential at 10 uM measured after 2 hrs by TMRM dye based flow cytometry; format: cell-based; conditions: PC-3
NCI-H460 [6] = experiment: Antitumor activity against human NCI-H460 cells xenografted in nude mouse assessed as tumor growth inhibition at 5 mg/kg, ip administered daily; format: functional, organism-based
NCI-H460 [7] = experiment: Cytotoxicity against human NCI-H460 cells assessed as reduction in cell viability up to 3 uM measured after 24 hrs by MTT assay; format: functional, cell-based
[8] = target: T1, Heat shock protein 75 kDa, mitochondrial (Homo sapiens); experiment: Inhibition of TRAP1 in human PC3 cells assessed as reduction in ATP concentration at 10 uM measured after 2 hrs; format: cell-based; conditions: PC-3
[9] = target: T1, Heat shock protein 75 kDa, mitochondrial (Homo sapiens); experiment: Inhibition of recombinant wild-type human TRAP1 chaperone activity expressed in Escherichia coli BL21 (DE3) at 5 uM preincubated for 30 mins followed by denatured luciferase and ATP addition by luciferase refolding assay

Nc1ncnc2c1nc(Sc1cc3c(cc1I)OCO3)n2CCCCCCCCCC[P+](c1ccccc1)(c1ccccc1)c1ccccc1
Activity (HeLa): Active
Activity [1]: 72.5%
inhibition [2]: Active
Activity [3]: Active
fold change (FC) [4]: 1.2
inhibition (Mus musculus): Active
inhibition [5]: Active
TGI (NCI-H460 [6]): Active
Activity (NCI-H460 [7]): Active
inhibition [8]: Active
inhibition [9]: Active

Reference: ChEMBL document CHEMBL4602687, “Dual Binding to Orthosteric and Allosteric Sites Enhances the Anticancer Activity of a TRAP1-Targeting Drug” (J Med Chem, 2020)
